Among the test systems are SK-OV-3 ovarian; OVCAR-8 ovarian; HT29 colon; NCI-H522 lung; HL-60(TB) leukemia; OVCAR-4 ovarian; COLO 205 colon; K-562 leukemia; NCI/ADR-RES ovarian; MALME-3M melanoma.
What all share (assay): NCI-60 cell line screen, 48 h

Our source for the TGI and GI50 values is PubChem BioAssay (NCI).

Several values for one entry are separate records, joined by “and”; a condition that tells them apart may be missing. Equal entries are not always repeated.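 96-well plates; 48 h exposure; 5 concentrations. Endpoints by linear interpolation between flanking doses. Not reached: highest tested concentration assigned. GI50 is the concentration that inhibits growth by half. TGI is the concentration that stops growth completely.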

As for `CC12CCC(Br)C(C)(C)C1CC=C1C(=O)OCC1O2` (configuration not stated), the TGI is 29.9 µM with SK-OV-3 ovarian; 34.9 µM with OVCAR-8 ovarian; 87.5 µM with HT29 colon; 11.7 µM in the assay on NCI-H522 lung; more than 100 µM in the assay on HL-60(TB) leukemia; 42.3 µM with OVCAR-4 ovarian. In addition, the TGI is 34.7 µM in the assay with COLO 205 colon, more than 100 µM in the assay with K-562 leukemia and 56.9 µM with NCI/ADR-RES ovarian.
Take `CCN1CCN(CC(=O)N2c3cccc4cccc(c34)N(C(=O)CN3CCN(CC)CC3)C2c2cn(-c3ccccc3)nc2-c2cccc([N+](=O)[O-])c2)CC1`: the GI50 in the assay with SK-OV-3 ovarian was 1.9 µM; in the assay on OVCAR-8 ovarian, 2.06 µM; in the assay with HT29 colon, 1.74 µM; with HL-60(TB) leukemia, 1.93 µM; in the assay with OVCAR-4 ovarian, 1.79 µM; in the assay on COLO 205 colon, 1.72 µM. In addition, the GI50 in the assay with MALME-3M melanoma is 1.63 µM; in the assay with NCI/ADR-RES ovarian, 1.98 µM. Also, the TGI in the assay on SK-OV-3 ovarian is 3.74 µM; with OVCAR-8 ovarian, 5.01 µM; with HT29 colon, 3.84 µM; with HL-60(TB) leukemia, 3.85 µM; in the assay with OVCAR-4 ovarian it was 3.71 µM; with COLO 205 colon, 3.39 µM. The results for the TGI in the assay on MALME-3M melanoma and in the assay with NCI/ADR-RES ovarian were 3.13 µM and 4.16 µM, respectively.
On to `COc1cc(-c2nc(SCCC(C)C)nc(Nc3ccc(S(N)(=O)=O)cc3)c2C#N)cc(OC)c1OC`, for which the GI50 is 4 µM in the assay on OVCAR-8 ovarian; 2.25 µM in the assay on HT29 colon; 3.52 µM in the assay with NCI-H522 lung; 2.3 µM in the assay on HL-60(TB) leukemia; 3.45 µM in the assay on OVCAR-4 ovarian; 2.06 µM in the assay on COLO 205 colon. Besides, the GI50 was 1.6 µM in the assay with MALME-3M melanoma, 2.73 µM in the assay with K-562 leukemia and 3.03 µM with NCI/ADR-RES ovarian. The TGI in the assay with OVCAR-8 ovarian is more than 100 µM; in the assay with HT29 colon, 5.13 µM; in the assay on NCI-H522 lung, more than 100 µM; in the assay on HL-60(TB) leukemia it was 5.86 µM; with OVCAR-4 ovarian, more than 100 µM; with COLO 205 colon, 5.08 µM. Besides, the TGI in the assay on MALME-3M melanoma was 4.14 µM; in the assay on K-562 leukemia it was more than 100 µM; in the assay on NCI/ADR-RES ovarian it was more than 100 µM.
Take `COC(=O)CC[C@H](Cc1ccccc1)NC(=O)c1csc([C@@H](C[C@H](C(C)C)N(C)C(=O)[C@@H](NC(=O)[C@H]2CCCCN2C)C(C)C)OC(C)=O)n1`: the GI50 in the assay on SK-OV-3 ovarian is less than 0.0025 µM; in the assay with OVCAR-8 ovarian, 0.00318 µM; in the assay on HT29 colon, less than 0.0025 µM; with OVCAR-4 ovarian it was 0.023 µM; in the assay with MALME-3M melanoma, 7.53 µM; in the assay with K-562 leukemia, less than 0.0025 µM. The GI50 with NCI/ADR-RES ovarian was 0.0714 µM. The TGI in the assay with SK-OV-3 ovarian, in the assay on OVCAR-8 ovarian, in the assay with HT29 colon, with OVCAR-4 ovarian, in the assay on MALME-3M melanoma and in the assay with K-562 leukemia was more than 25 µM each time. Further, in the assay with NCI/ADR-RES ovarian, the TGI is more than 25 µM.
As for `CSc1nc(SC)c2c(CO)c(Br)n(Cc3ccccc3)c2n1`, the TGI was 37.6 µM in the assay on SK-OV-3 ovarian; 44.1 µM with OVCAR-8 ovarian; more than 100 µM in the assay on HT29 colon; 68.8 µM in the assay with NCI-H522 lung; more than 100 µM with HL-60(TB) leukemia; 41.7 µM with OVCAR-4 ovarian. For the same compound, the TGI in the assay with COLO 205 colon, in the assay with MALME-3M melanoma and in the assay with NCI/ADR-RES ovarian was more than 100 µM in each case.
Consider `N#CC1CC2(CCN1C(=O)c1ccccc1)OCCO2` (configuration not stated), for which the TGI with SK-OV-3 ovarian was more than 100 µM; with OVCAR-8 ovarian, more than 100 µM; with HT29 colon, more than 100 µM; in the assay on NCI-H522 lung it was 78.2 µM; in the assay on HL-60(TB) leukemia it was more than 100 µM; in the assay with OVCAR-4 ovarian, more than 100 µM. Moreover, the TGI in the assay on COLO 205 colon, with MALME-3M melanoma and with K-562 leukemia was more than 100 µM throughout.
Take `O=Cc1c(O)c(C(=O)Nc2ccc3[nH]c(=O)[nH]c3c2)cc2ccccc12`: the TGI in the assay with SK-OV-3 ovarian, in the assay with OVCAR-8 ovarian, in the assay on HT29 colon, in the assay with NCI-H522 lung, in the assay with HL-60(TB) leukemia and in the assay on OVCAR-4 ovarian was more than 100 µM in each case. In addition, the TGI with COLO 205 colon, with MALME-3M melanoma and in the assay with K-562 leukemia was more than 100 µM each time.
For `CCOC(=O)c1[nH]c(COC(C)=O)c2c1CCCCCCCCCC2`, the TGI with SK-OV-3 ovarian, with OVCAR-8 ovarian, with HT29 colon, in the assay with NCI-H522 lung, in the assay with HL-60(TB) leukemia and with OVCAR-4 ovarian was more than 100 µM each time. Further, the TGI with COLO 205 colon, with MALME-3M melanoma and with K-562 leukemia was more than 100 µM in each case.
Consider `S=P(N1CC1)(N1CC1)N1CC1`, for which the GI50 was 16 µM and 143 µM in the assay with SK-OV-3 ovarian; 20.1 µM and 93.7 µM in the assay on OVCAR-8 ovarian; 15 µM and 125 µM in the assay on NCI-H522 lung; 0.942 µM and 1.95 µM in the assay with HL-60(TB) leukemia; 24.5 µM in the assay with K-562 leukemia; 53.8 µM with NCI/ADR-RES ovarian. The TGI in the assay on SK-OV-3 ovarian is 47.2 µM and 406 µM and 296 µM; in the assay with OVCAR-8 ovarian it was 58.5 µM and 523 µM and 323 µM; with HT29 colon, 66.7 µM and 500 µM and 617 µM; in the assay on NCI-H522 lung, 33.6 µM and 273 µM and 329 µM; in the assay with K-562 leukemia it was 834 µM and 911 µM; with NCI/ADR-RES ovarian, 511 µM and 225 µM.
As for `CC(C)(c1ccccc1)c1ccc(OC#N)cc1`, the TGI in the assay with SK-OV-3 ovarian was more than 100 µM; in the assay on OVCAR-8 ovarian, more than 100 µM; in the assay with HT29 colon, more than 100 µM; in the assay with NCI-H522 lung, 24.4 µM; with HL-60(TB) leukemia it was more than 77.9 µM; in the assay with OVCAR-4 ovarian, more than 100 µM. The TGI in the assay with COLO 205 colon is more than 56.5 µM; in the assay on MALME-3M melanoma, more than 100 µM; in the assay with K-562 leukemia, more than 100 µM.
Consider `Oc1ccc2oc3ncc(Br)c(-c4ccccc4)c3c2c1`, for which the GI50 in the assay on SK-OV-3 ovarian, in the assay on OVCAR-8 ovarian, in the assay with HT29 colon, in the assay on NCI-H522 lung, in the assay with HL-60(TB) leukemia and with K-562 leukemia was more than 100 µM throughout. The GI50 with NCI/ADR-RES ovarian was more than 100 µM. In addition, the TGI with SK-OV-3 ovarian, in the assay on OVCAR-8 ovarian, with HT29 colon, with NCI-H522 lung, in the assay with HL-60(TB) leukemia and in the assay with K-562 leukemia was more than 100 µM each time. In the assay on NCI/ADR-RES ovarian, this compound came in with a TGI of more than 100 µM.
Regarding `Cc1cccc(C)c1NC(=O)C(=O)Nn1c(NN)nc2ccccc2c1=O`, the TGI with SK-OV-3 ovarian, with OVCAR-8 ovarian, in the assay on HT29 colon, in the assay with NCI-H522 lung, in the assay with HL-60(TB) leukemia and in the assay on OVCAR-4 ovarian was more than 100 µM each time. For the same compound, the TGI with COLO 205 colon, with MALME-3M melanoma and with K-562 leukemia was more than 100 µM each time.
